Results taken from PubChem BioAssay (NCI).
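Test compounds were applied to cells in 96-well plates for 48 hours at 5 doses. TGI: concentration producing complete growth inhibition.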

Key:
Test in all cases: growth of human tumour cells (NCI), 48 h
[1] = tested on: EKVX NSCLC
[2] = tested on: K-562 leukemia
[3] = tested on: SF-539 CNS
[4] = tested on: MDA-MB-435
[5] = tested on: SR leukemia
[6] = tested on: HOP-62 NSCLC
[7] = tested on: HS 578T breast
[8] = tested on: A549 NSCLC
[9] = tested on: IGROV1 ovarian
[10] = tested on: UO-31 renal
[11] = tested on: CCRF-CEM leukemia
[12] = tested on: SK-OV-3 ovarian
[13] = tested on: U251 CNS
[14] = tested on: HT29 colon
[15] = tested on: NCI/ADR-RES ovarian

## COc1cc(/C=N/NC2=NCCCCN2)ccc1O
[1]
  TGI: > 100 µM
[2]
  TGI: > 100 µM
[3]
  TGI: > 100 µM
[4]
  TGI: > 100 µM
[5]
  TGI: > 100 µM
[6]
  TGI: > 100 µM
[7]
  TGI: > 100 µM
[8]
  TGI: > 100 µM
[9]
  TGI: > 100 µM
[10]
  TGI: > 100 µM
[11]
  TGI: > 100 µM
[12]
  TGI: > 100 µM
[13]
  TGI: > 100 µM
[14]
  TGI: > 100 µM
[15]
  TGI: > 100 µM

## CC(O)[C@@]1(c2ccccc2)CC2(CCN(C)CC2)O[C@H]1C (some centres undefined)
[1]
  TGI: > 100 µM
[2]
  TGI: > 100 µM
[3]
  TGI: > 100 µM
[4]
  TGI: > 100 µM
[5]
  TGI: > 100 µM
[6]
  TGI: > 100 µM
[7]
  TGI: > 100 µM
[8]
  TGI: > 100 µM
[9]
  TGI: > 100 µM
[10]
  TGI: > 100 µM
[11]
  TGI: 79 µM
[12]
  TGI: > 100 µM
[13]
  TGI: > 100 µM
[14]
  TGI: > 100 µM
[15]
  TGI: > 100 µM

## O=C1CC2SC(COCc3ccccc3)(CCN2Cc2ccccc2)C1 (centres undefined)
[1]
  TGI: > 100 µM
[2]
  TGI: > 100 µM
[3]
  TGI: > 100 µM
[4]
  TGI: > 100 µM
[5]
  TGI: > 100 µM
[6]
  TGI: > 100 µM
[7]
  TGI: > 100 µM
[8]
  TGI: > 100 µM
[9]
  TGI: > 100 µM
[10]
  TGI: > 100 µM
[11]
  TGI: > 100 µM
[12]
  TGI: > 100 µM
[13]
  TGI: > 100 µM
[14]
  TGI: > 100 µM
[15]
  TGI: > 100 µM

## CCOC(=O)C(Cc1ccc(N(CCCl)CCCl)cc1)NC(=O)CCCN1C(=O)CN=C(c2ccccc2)c2cc(Cl)ccc21 (centres undefined)
[1]
  TGI: > 100 µM
[2]
  TGI: > 100 µM
[3]
  TGI: 16.3 µM
[4]
  TGI: > 59.5 µM
[5]
  TGI: > 27.3 µM
[6]
  TGI: > 100 µM
[7]
  TGI: 52 µM
[8]
  TGI: > 100 µM
[9]
  TGI: 16.9 µM
[10]
  TGI: 30.8 µM
[11]
  TGI: > 100 µM
[12]
  TGI: > 100 µM
[13]
  TGI: > 100 µM
[14]
  TGI: > 100 µM
[15]
  TGI: > 87.1 µM

## COc1ccc(C(=O)/C=C/c2ccc(OCC(=N)N)cc2)cc1
[1]
  TGI: 30.8 µM
[2]
  TGI: 20.1 µM
[3]
  TGI: 29.6 µM
[4]
  TGI: 36.8 µM
[5]
  TGI: 25.9 µM
[6]
  TGI: 29.9 µM
[7]
  TGI: 34.9 µM
[8]
  TGI: 33.1 µM
[9]
  TGI: 40.8 µM
[10]
  TGI: 34.1 µM
[11]
  TGI: 25.7 µM
[12]
  TGI: 25.5 µM
[13]
  TGI: 27.7 µM
[14]
  TGI: 28.8 µM
[15]
  TGI: 72 µM

## CC1CN=C(Nc2ccc(F)c(Cl)c2)S1 (centres undefined)
[1]
  TGI: > 100 µM
[2]
  TGI: > 100 µM
[3]
  TGI: > 100 µM
[4]
  TGI: > 100 µM
[5]
  TGI: > 100 µM
[6]
  TGI: > 100 µM
[7]
  TGI: > 100 µM
[8]
  TGI: > 100 µM
[9]
  TGI: > 100 µM
[10]
  TGI: 91.8 µM
[11]
  TGI: > 100 µM
[12]
  TGI: > 100 µM
[13]
  TGI: > 100 µM
[14]
  TGI: > 100 µM
[15]
  TGI: > 100 µM

## CC(C)[C@@H](C)[C@@]1(C)C[C@@H]1[C@@H](C)[C@H]1CC[C@@H]([C@@H]2CC=C3C[C@@H](O)CC[C@]3(C)C2=O)[C@]1(C)CCO
[1]
  TGI: 26 µM
[2]
  TGI: 18 µM
[3]
  TGI: 25.3 µM
[4]
  TGI: 24.3 µM
[5]
  TGI: 13.3 µM
[6]
  TGI: 31.2 µM
[7]
  TGI: 25.2 µM
[9]
  TGI: 29.8 µM
[10]
  TGI: 28.5 µM
[13]
  TGI: 23 µM
[14]
  TGI: 7.39 µM
[15]
  TGI: 26.6 µM

## COc1ccc(/C(=N\Nc2ccccn2)c2ccccn2)cc1
[1]
  TGI: 13.6 µM
[2]
  TGI: > 100 µM
[3]
  TGI: 6.6 µM
[4]
  TGI: 22.3 µM
[5]
  TGI: > 33.7 µM
[6]
  TGI: 10.4 µM
[7]
  TGI: 18.4 µM
[8]
  TGI: 11.1 µM
[9]
  TGI: 7.89 µM
[10]
  TGI: 0.629 µM
[11]
  TGI: > 100 µM
[12]
  TGI: 10.1 µM
[13]
  TGI: 17.1 µM
[14]
  TGI: 14 µM
[15]
  TGI: 0.0475 µM

## C1CN2CCNCCN(CCN1)CC2
[1]
  TGI: > 100 µM
[2]
  TGI: > 100 µM
[3]
  TGI: > 100 µM
[4]
  TGI: > 100 µM
[5]
  TGI: > 100 µM
[6]
  TGI: > 100 µM
[7]
  TGI: > 100 µM
[8]
  TGI: > 100 µM
[9]
  TGI: > 100 µM
[10]
  TGI: > 100 µM
[11]
  TGI: > 100 µM
[12]
  TGI: > 100 µM
[13]
  TGI: > 100 µM
[14]
  TGI: > 100 µM
[15]
  TGI: > 100 µM

## S=C=NC1CCC(c2cc3ccccc3s2)(N2CCCCC2)CC1 (centres undefined)
[1]
  TGI: 4.69 µM
[2]
  TGI: 1.98 µM
[3]
  TGI: 3.77 µM
[4]
  TGI: 3.19 µM
[5]
  TGI: 2.12 µM
[7]
  TGI: 4.73 µM
[8]
  TGI: 11.1 µM
[10]
  TGI: 3.66 µM
[11]
  TGI: 2.5 µM
[12]
  TGI: 4.59 µM
[14]
  TGI: 3.66 µM
[15]
  TGI: 5.68 µM

## N/C(=N\S(=O)(=O)c1cc(Cl)c(Oc2ccc([N+](=O)[O-])cc2Cl)c(Cl)c1)Nc1ccc(Cl)cc1
[1]
  TGI: 36.6 µM
[2]
  TGI: 43.1 µM
[3]
  TGI: 34.4 µM
[4]
  TGI: 33.6 µM
[5]
  TGI: 43.3 µM
[7]
  TGI: > 100 µM
[8]
  TGI: 35.9 µM
[9]
  TGI: 31.4 µM
[10]
  TGI: 34.1 µM
[11]
  TGI: 52.1 µM
[12]
  TGI: 39.8 µM
[13]
  TGI: 29.6 µM
[14]
  TGI: 54.4 µM
[15]
  TGI: 35.3 µM

## COc1cc2ccc1OCc1cccc(n1)COc1ccc(cc1OC)C=NCCNCCN=C2
[1]
  TGI: > 100 µM
[2]
  TGI: > 100 µM
[3]
  TGI: > 100 µM
[4]
  TGI: > 100 µM
[5]
  TGI: > 100 µM
[6]
  TGI: > 100 µM
[7]
  TGI: > 100 µM
[8]
  TGI: > 100 µM
[9]
  TGI: > 100 µM
[10]
  TGI: > 100 µM
[12]
  TGI: > 100 µM
[13]
  TGI: > 100 µM
[14]
  TGI: > 100 µM
[15]
  TGI: > 100 µM

## Cc1ccc(N2C(N)=C(C#N)C(C#N)(C#N)C2c2ccccc2)cc1 (centres undefined)
[1]
  TGI: 46 µM
[3]
  TGI: 29.2 µM
[4]
  TGI: 14.1 µM
[5]
  TGI: 33.7 µM
[6]
  TGI: 36.9 µM
[7]
  TGI: 76.7 µM
[8]
  TGI: 38.2 µM
[9]
  TGI: 20.2 µM
[10]
  TGI: 32 µM
[11]
  TGI: 7.33 µM
[12]
  TGI: 47.6 µM
[13]
  TGI: 31.6 µM
[14]
  TGI: 13.9 µM
[15]
  TGI: 36.1 µM

## C#CC1NC(=O)C1N(CC)CC (centres undefined)
[1]
  TGI: > 100 µM
[2]
  TGI: > 100 µM
[3]
  TGI: > 100 µM
[4]
  TGI: > 100 µM
[5]
  TGI: > 100 µM
[6]
  TGI: > 100 µM
[7]
  TGI: > 100 µM
[9]
  TGI: > 100 µM
[10]
  TGI: > 100 µM
[11]
  TGI: > 100 µM
[12]
  TGI: > 100 µM
[13]
  TGI: > 100 µM
[14]
  TGI: > 100 µM
[15]
  TGI: > 100 µM

## O=Nc1c(O)cc(Nc2cccnc2)c2ccccc12
[1]
  TGI: > 100 µM
[2]
  TGI: 58.8 µM
[3]
  TGI: > 100 µM
[4]
  TGI: > 100 µM
[6]
  TGI: > 100 µM
[7]
  TGI: > 100 µM
[8]
  TGI: > 100 µM
[9]
  TGI: 49.9 µM
[10]
  TGI: > 100 µM
[11]
  TGI: 26.2 µM
[12]
  TGI: > 100 µM
[13]
  TGI: > 100 µM
[14]
  TGI: 50.9 µM
[15]
  TGI: 65.1 µM
